The target in assay [1] is T1, human D2S receptor (Homo sapiens, UniProt P14416).
T1 construct: expressed in transfected cells; host or cells: CHO-K1
The experiment in a line: Functional assays of cAMP signalling at D2 receptors (CHO-K1 cells, HTRF). Type of assay: cell-based. How it is done:
The assessment of the activity of selected compounds at the D2 receptor was performed in cell-based functional assays of cAMP signaling, in the CHO-K1 cell line with stable expression of the cloned human D2S receptor, which was also employed for the radioligand binding assays. For D2 receptor antagonism, test compounds were dispensed into an empty 96-well plate (Isoplate-96 Black Frame White Well, PerkinElmer España SL, Madrid, Spain) with the use of the dispensing noncontact Echo 550 acoustic liquid handler (LABCYTE Inc., San Jose, CA, USA). Compounds were handled from frozen 10^−2 M stock solutions in 100% DMSO, from which serial 1000× solutions were prepared in 100% DMSO at the time of the assay, keeping vehicle concentration (0.1% DMSO) constant in the assay. Vials containing viable frozen cells were quickly thawed in a 37 °C water bath and cells were seeded into the assay plate in assay buffer (kit stimulation buffer containing 500 µM 3-isobutyl-1-methylxanthine (IBMX), which was directly added to the buffer as powder). […] After 10 min incubation at 37 °C, 10 µM forskolin was added to the corresponding wells, and incubation was continued for 5 min. After this time, cellular cAMP levels were quantified using the homogeneous time-resolved fluorescence (HTRF)-based cAMP Gs dynamic kit (Cisbio, Bioassays, Codolet, France) according to the manufacturer’s protocol. […] Basal cAMP levels were determined in control wells in the absence of compound, agonist, and forskolin.

Assay [2] deals with T1, human D2S receptor. The experiment in a line: Competition radioligand binding at human D2 receptor ([3H]-Spiperone, CHO-K1 membranes). Particulars: mean ± SEM of 2–3 independent experiments in duplicate; read-out: huD2 Ki. How it is done: Experiments were carried out in membranes isolated from a CHO-K1 cell line stably overexpressing the cloned human D2S receptor.
(§1) Competition radioligand binding assays were performed on membranes isolated from cell lines stably expressing the cloned human receptors, which were either in-house or commercially available. […] Assays (250 μL assay final volume) were carried out in 96-well polypropylene plates in duplicate. In short, the suspension of appropriate membrane protein was incubated in an assay buffer with the addition of the corresponding radioligand, in the presence or absence of a tested compound or reference compound. […] After the incubation, the content of the test plates was transferred to 96 well plates with glass fiber filter GF/B or GF/C, previously pretreated with polyethyleneimine (PEI), and rapidly filtered with the use of vacuum, followed by rapid washing with cold (4 °C) wash buffer. After that, the filter plates were dried at 60 °C for 1 h. Then, 30 μL of liquid scintillation cocktail (UniverSol-ES, MP Biomedicals, Solon, OH, USA) was added to each well of the filter plates, and the radioactivity was measured in a MicroBeta^2 microplate scintillation counter (PerkinElmer, Madrid, Spain).
(§2) Competition binding curves were fitted to a one-site competition binding model (Fit Ki) with the use of Prism 7 software (GraphPad, San Diego, CA, USA). logKi (log of the equilibrium dissociation constant (Ki)) values were obtained after constraining the concentration of radioligand employed in the assay and its dissociation constant (KD) as determined in saturation radioligand binding assays.

Another assay concerns the target T2, human 5-HT1A receptor (Homo sapiens, UniProt P08908).
T2 construct: expressed in transfected cells; host or cells: HEK293
T2 sequence (P08908 1-422): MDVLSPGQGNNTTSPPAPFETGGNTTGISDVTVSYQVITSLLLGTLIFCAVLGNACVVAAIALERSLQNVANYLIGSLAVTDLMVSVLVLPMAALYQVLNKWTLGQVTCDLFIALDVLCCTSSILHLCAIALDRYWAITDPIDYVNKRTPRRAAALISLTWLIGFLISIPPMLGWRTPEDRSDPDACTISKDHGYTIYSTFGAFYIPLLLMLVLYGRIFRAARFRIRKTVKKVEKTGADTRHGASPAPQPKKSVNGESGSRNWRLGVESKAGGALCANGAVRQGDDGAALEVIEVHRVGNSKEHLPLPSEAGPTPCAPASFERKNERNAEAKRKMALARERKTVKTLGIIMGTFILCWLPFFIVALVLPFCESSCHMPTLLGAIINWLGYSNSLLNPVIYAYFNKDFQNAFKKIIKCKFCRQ
Briefly: Competition radioligand binding at human 5-HT1A receptor ([3H]-8-OH-DPAT). Particulars: mean ± SEM of 2 independent experiments, read-out: hu5-HT1A % inh. at 10 µM. How it is done:
as §1, §2

For another assay, the system named is mice. The experiment in a line: Forced swim test (FST). Type of assay: in vivo. Particulars: 60 min before the test. As to the method: The experiments were carried out on 6 weeks old naive Swiss male mice (Experimental Medicine Center (OMD), Lublin, Poland), weighing 28–30 g. The cages with mice were located in air-conditioned rooms maintaining the ambient temperature within the range of 23–25 °C. The animals were provided with a natural 12 h day/night cycle, replicating the day and night mode. Each testing group was represented by 8–10 animals, depending on the research schedule. All experiments were conducted according to the National Institute of Health Guidelines for the Care and Use of Laboratory Animals (8th edition) and to the European Community Council Directive for the Care and Use of Laboratory Animals of 22 September 2010 (2010/63/EU) and were approved by the Local Ethical Committee (number of ethical approval: 147/2018). Compound 17 (25, 50, 75 mg/kg) was suspended in 1% Tween 80 in saline solution and was administered intraperitoneally (i.p.) 60 min before the test. […] Imipramine hydrochloride (30 mg/kg, Sigma-Aldrich was administered intraperitoneally (i.p.) 60 min before the test. […] Sigma-Aldrich, USA) was given subcutaneously (s.c.). Prior to administration, the agent was dissolved in saline and injected 30 min before the test. Control animals received an (i.p.) or (s.c.) injection of a respective vehicle. All compounds were injected in a manner generally accepted in experimental pharmacology, in an amount of 10 mL/kg body weight. Forced Swim Test was carried out according to the method of Porsolt et al.. It is a standard behavioral test, called the resignation test, which is used to determine the effectiveness of antidepressant drugs in laboratory rodents. Each mouse was placed individually for 6 min into a glass cylinder (height 25 cm, diameter 10 cm) with 15 cm of water at 23–25 °C. After the first 2 min of the test, the total duration of immobility (in seconds) was measured. An animal was judged to be immobile when it ceased struggling and remained floating motionless and making only movements allowing it to keep the head just above the surface of the water.

The target of a further assay is T3, human 5-HT7 receptor (Homo sapiens, UniProt P34969).
T3 construct: expressed in transfected cells; host or cells: HEK293
The experiment in a line: Competition radioligand binding at human 5-HT7 receptor ([3H]-SB269970). Particulars: mean ± SEM of 2 independent experiments, read-out: hu5-HT7 % inh. at 10 µM. As to the method:
as §1, §2

Assay [3] has as its target T4, human dopamine D3 receptor (Homo sapiens, UniProt P35462).
T4 construct: expressed in transfected cells; host or cells: CHO-K1
Briefly: Competition radioligand binding at human D3 receptor ([3H]-Spiperone). Particulars: mean ± SEM of 2 independent experiments, read-out: huD3 % inh. at 10 µM. How it is done: as §1, §2

For orientation: Ki means the equilibrium dissociation constant of an inhibitor or competing ligand from its target.

T1 sequence (P14416 1-414 isoform P14416-2): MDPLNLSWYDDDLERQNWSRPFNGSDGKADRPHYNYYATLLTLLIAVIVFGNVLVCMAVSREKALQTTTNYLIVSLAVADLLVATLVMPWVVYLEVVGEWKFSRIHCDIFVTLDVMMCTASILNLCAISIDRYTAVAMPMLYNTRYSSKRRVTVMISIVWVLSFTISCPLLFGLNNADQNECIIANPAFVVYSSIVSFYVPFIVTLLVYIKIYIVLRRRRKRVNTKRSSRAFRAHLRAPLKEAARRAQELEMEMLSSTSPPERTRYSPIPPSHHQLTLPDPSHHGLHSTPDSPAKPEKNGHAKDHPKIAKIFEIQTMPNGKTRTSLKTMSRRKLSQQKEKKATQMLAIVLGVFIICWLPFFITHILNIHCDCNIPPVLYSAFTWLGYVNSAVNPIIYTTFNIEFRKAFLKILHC
T4 sequence (P35462 whole entry): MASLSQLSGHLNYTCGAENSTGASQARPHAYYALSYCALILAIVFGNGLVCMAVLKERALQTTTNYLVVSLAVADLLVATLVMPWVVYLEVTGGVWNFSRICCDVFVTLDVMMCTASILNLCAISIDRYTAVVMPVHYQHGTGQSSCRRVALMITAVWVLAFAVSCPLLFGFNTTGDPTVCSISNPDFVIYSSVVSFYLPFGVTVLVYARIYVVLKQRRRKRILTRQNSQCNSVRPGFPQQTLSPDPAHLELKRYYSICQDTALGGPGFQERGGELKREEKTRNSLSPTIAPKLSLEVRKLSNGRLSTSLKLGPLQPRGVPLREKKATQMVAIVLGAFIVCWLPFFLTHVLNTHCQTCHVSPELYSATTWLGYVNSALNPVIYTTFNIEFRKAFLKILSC
T3 sequence (P34969 whole entry): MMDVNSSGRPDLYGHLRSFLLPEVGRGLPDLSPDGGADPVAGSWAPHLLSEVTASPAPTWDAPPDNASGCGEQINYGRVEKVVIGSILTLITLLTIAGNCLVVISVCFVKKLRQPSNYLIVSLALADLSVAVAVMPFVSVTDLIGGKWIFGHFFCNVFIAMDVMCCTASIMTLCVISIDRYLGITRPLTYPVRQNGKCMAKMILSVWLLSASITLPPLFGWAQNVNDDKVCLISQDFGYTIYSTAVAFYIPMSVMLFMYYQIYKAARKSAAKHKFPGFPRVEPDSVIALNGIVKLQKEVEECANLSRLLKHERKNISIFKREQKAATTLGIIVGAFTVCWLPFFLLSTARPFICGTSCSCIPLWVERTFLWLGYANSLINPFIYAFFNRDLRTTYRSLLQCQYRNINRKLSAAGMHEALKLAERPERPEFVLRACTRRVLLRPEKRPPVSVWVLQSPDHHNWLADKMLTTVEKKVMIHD

On to `O=C(CCN1C(=O)CSc2ccccc21)Nc1ccc(Cl)cc1` [Compound 17, N-(4-Chlorophenyl)-3-(3-oxo-2,3-dihydro-4H-benzo[b][1,4]thiazin-4-yl)propanamide], for which the Kb on human D2S receptor [1] (antagonism of 1 µM dopamine response, forskolin-stimulated cAMP, three independent experiments, read-out: D2 Signalling (cAMP) pKb (Mean ± SEM) (converted)) is 26.9 nM. Also, the “efficacy at D2 receptor (mode of action)” value at human D2S receptor [1] (cAMP signaling, CHO-K1 cells) was “antagonism”. The Ki at human D2S receptor [2] was 381 ± 48 nM. In addition, the results for the inhibition at 10 µM (at human 5-HT1A receptor; at human 5-HT7 receptor; in assay [3]) were 29 ± 9%, 5 ± 11% and 6 ± 3%, respectively. In the assay with mice (25 mg/kg i.p., p > 0.05), the “effect on immobility time” value is “no statistically significant effect”. Further, the “effect on total time of immobility vs control group” value in the assay on mice (50 mg/kg i.p., p < 0.001) is “significantly reduced”; with mice (75 mg/kg i.p., p < 0.01), “significantly reduced”.

Source of the values: paper PMC10223470 (Molecules, 2023).
